Assay results reported in publication PMC8283759, “A Flavoprotein Dioxygenase Steers Bacterial Tropone Biosynthesis via Coenzyme A-Ester Oxygenolysis and Ring Epoxidation” (Journal of the American Chemical Society, 2021).

Target: T1, TdaEBp (Burkholderia plantarii, UniProt A0A0B6RWE3)
T1 construct: gene BGL_1c08010; heterologously produced and purified, N-terminal GB1 (subunit B of protein G) and C-terminal polyhistidine tag
Assay: UV-vis of purified protein (c280/c450)
Format: binding
Conditions: loosely bound, co-purified; partial occupancy

T1 sequence (A0A0B6RWE3 entry or part of it): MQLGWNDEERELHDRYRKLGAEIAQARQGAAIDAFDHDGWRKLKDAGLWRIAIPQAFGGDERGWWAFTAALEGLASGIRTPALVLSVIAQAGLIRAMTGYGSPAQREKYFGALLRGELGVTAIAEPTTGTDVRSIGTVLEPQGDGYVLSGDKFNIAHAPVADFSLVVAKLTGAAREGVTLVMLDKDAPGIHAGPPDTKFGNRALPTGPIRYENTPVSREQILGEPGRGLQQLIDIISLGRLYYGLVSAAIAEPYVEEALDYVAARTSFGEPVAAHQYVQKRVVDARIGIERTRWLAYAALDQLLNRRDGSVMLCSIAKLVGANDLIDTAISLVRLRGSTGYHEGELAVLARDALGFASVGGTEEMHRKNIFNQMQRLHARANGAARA

Cc1cc2nc3c(=O)[nH]c(=O)nc-3n(C[C@H](O)[C@H](O)[C@H](O)COP(=O)(O)OP(=O)(O)OC[C@H]3O[C@@H](n4cnc5c(N)ncnc54)[C@H](O)[C@@H]3O)c2cc1C [FAD]
UV-vis of purified protein (c280/c450): TdaE^Bp was weakly yellow due to a loosely bound FAD cofactor
